According to US10813891B2, “Method of inhibiting chronification of pain” (priority 2011, dated 2020):
“And” between values parts separate entries of the source, which are not always exact repeats. Identical values can stand only once.

How the values were obtained:
[1] = system: male albino rats (Sprague Dawley) with paw incision; assay: Paw incision model for postoperative pain (electronic von Frey, tactile withdrawal threshold); type: in vivo, rat
From the text: Post operative, incisional pain is a common form of persistent, acute pain. Brennan et al. (Brennan T J, Vandermeulen E P, and Gebhart G F. Characterization of a rat model of incisional pain. Pain 1996; 64:493-501) developed a post operative model in rats with surgical intervention on the plantar surface of the hind foot for the evaluation of novel analgesic therapeutics. A surgical incision of the rat foot causes a reliable and quantifiable tactile hypersensitivity during the initial post operative period and lasting for several days after surgery. This model may thus be useful for predicting analgesia by investigational agents for post operative pain.
The experiments were carried out in male albino rats (Sprague Dawley) with 170 g-230 g body weight from a commercial breeder (Charles River, Germany). Surgery was performed as previously described. Brennan et al. (Brennan T J, Vandermeulen E P, and Gebhart G F. Characterization of a rat model of incisional pain. Pain 1996; 64:493-501). Briefly, rats were anaesthetised with isoflurane, and a 1 cm longitudinal incision was made, through skin and fascia of the plantar aspect of the foot, starting from the proximal edge of the heel and extending toward the metatarsal toes. The plantaris muscle was elevated and incised longitudinally. The muscle origin and insertion remained intact. After spreading of the muscle and haemostasis with gentle pressure, the skin was closed with two single interrupted sutures. After surgery, the rats were allowed to recover in their home cages and the animals regained consciousness within 2 to 5 minutes. In order to ensure a complete recovery from anaesthesia the baseline value of each individual animal was recorded not until 2 hours after surgery.
The rats were placed in a plastic cage with a wire mesh bottom which allowed full access to the paws. Hind paw withdrawal threshold after mechanical stimulation was tested with electronic von Frey hairs (Somedic Sales AB, Hörby, Sweden). Ten rats were used per experimental group. Animals were placed in a plastic cage with a wire mesh bottom which allowed full access to the paws. Behavioral accommodation was allowed for 30 min. In each case, withdrawal response was measured at an area adjacent to the wound (ipsilateral) and to the same area on the non-injured foot (contralateral). Two hours after surgery, primary hypersensitivity was tested as tactile withdrawal threshold (tactile hyperalgesia) shortly before drug administration and at different time points after drug application. Animals injected with vehicle served as controls. The pretest measurement was made prior to surgery and two thresholds were taken per test and averaged. Ten rats were used per experimental group. Tactile withdrawal threshold was measured pre and after substance administration from day 1 to day 5 post surgery. From day 6 to day 13 post surgery the withdrawal threshold was measured without substance administration (wash out phase). The efficacy was expressed as MPE %=% of maximal possible effect, whereas MPE is defined as 100% reversal of tactile hyperalgesia compared to vehicle group.
Tapentadol at the dose of 14.7 mg/kg intraperitoneal route (i.p.) was adminstered twice daily (BID) (7 a.m./7 p.m.) throughout day 1 to day 5. The first administration was given 20 min before surgery on day 1. From day 6 to day 13 no substance was given (wash out phase) The study scheme is schematically illustrated in FIG. 1.

[2] = system: mRNA encoding ATF3, IL-6 and BDNF; assay: Real time qRT-PCR of mRNA in DRG and lumbar spinal cord of CCI-SN rats; type: in vivo, rat; settings: subchronic 10 mg/kg i.p. twice daily; ipsilateral L4-L6 DRG and dorsal quadrant of lumbar enlargement; 4 h after last injection
Procedure: Subchronic treatment consisted of twice daily injections of tapentadol (10 mg/kg, i.p. at 10:00 am and 6:00 pm) or saline for 4 days starting on the 15th day after nerve ligation in both CCI-ION and CCI-SN rats. Animals were further injected with tapentadol (10 mg/kg i.p.) or saline at 10:00 am the following day (19th day post-surgery), and assessment of allodynia with von Frey filament tests (see below) was made at various times up to 4 hours after this injection. All rats were killed by decapitation 4 hours after the last injection for real-time qRT-PCR determinations of specific mRNAs in ganglia and central tissues (see below).
Animals used for qRT-PCR procedure were decapitated immediately after performance of von Frey filament test four hours after the last injection of tapentadol or saline for subchronic treatment conditions (see above). […]
First-stranded cDNA synthesis (from 660 ng total RNA per 20 μl reaction mixture) was carried out using SuperScript™ III Reverse Transcriptase and random primers (250 ng per reaction), as recommended by the manufacturer (Invitrogen, Cergy Pontoise, France). […] Semi-quantitative determinations were made with reference to the reporter gene encoding glyceraldehyde 3-phosphate dehydrogenase (GaPDH; Rn99999916_sl). […] Specific mRNA levels were calculated after normalizing from GaDPH mRNA in each sample (Latrémolière et al., 2008). […]

Compound: CC[C@@H](c1cccc(O)c1)[C@@H](C)CN(C)C [Tapentadol, (−)-(1R,2R)-3-(3-dimethylamino-1-ethyl-2-methyl-propyl)-phenol]
- effect on sustained tactile hyperalgesia following surgical lesion ([1]; 14.7 mg/kg i.p. BID day 1-5, washout day 6-13): outlasts treatment duration
- MPE % (reversal of tactile hyperalgesia) ([1]; 14.7 mg/kg i.p. BID day 1-5, d 2_0.5 h (0.5 h after treatment on day 2 after surgery)): 38.3±5.48% and 38.3 ± 4.58 %
- MPE % (reversal of tactile hyperalgesia) ([1]; 14.7 mg/kg i.p. BID, d 3-0.5 h): 36.8 ± 2.41 %
- MPE % (reversal of tactile hyperalgesia) ([1]; 14.7 mg/kg i.p. BID, d 4-0.5 h): 34.5 ± 3.27 %
- MPE % (reversal of tactile hyperalgesia) ([1]; 14.7 mg/kg i.p. BID, d 5-0.5 h (last day of treatment)): 22.8 ± 5.29 %
- MPE % (reversal of tactile hyperalgesia) ([1]; 14.7 mg/kg i.p. BID, d 5-0.5 h (last day of treatment), listed as tapentadol): 22.8±5.29%
- MPE % (reversal of tactile hyperalgesia) ([1]; 14.7 mg/kg i.p. BID, pre-d 3 (before administration, day 3)): −0.6 ± 2.21 n.s. %
- MPE % (reversal of tactile hyperalgesia) ([1]; 14.7 mg/kg i.p. BID, pre-d 4): −6.00 ± 1.63 %
- MPE % (reversal of tactile hyperalgesia) ([1]; 14.7 mg/kg i.p. BID, pre-d 5): −6.60 ± 1.67 %
- remaining efficacy as % of the efficacy after substance treatment on day 5 ([1]; after 7 days of washout): 39%
- remaining efficacy as % of the efficacy after substance treatment on day 5 ([1]; day 9 (washout)): 74%
- MPE % (reversal of tactile hyperalgesia) ([1]; pre-d 8, washout phase (third day of washout) after 14.7 mg/kg i.p. BID day 1-5): 2.60 ± 2.51 n.s. %
- MPE % (reversal of tactile hyperalgesia) ([1]; pre-d 8, washout phase (third day of washout) after 14.7 mg/kg i.p. BID day 1-5, listed as tapentadol): 3%
- MPE % (reversal of tactile hyperalgesia) ([1]; pre-d 10, washout phase after 14.7 mg/kg i.p. BID day 1-5): 11.4 ± 3.21 %
- MPE % (reversal of tactile hyperalgesia) ([1]; pre-d 11, washout phase after 14.7 mg/kg i.p. BID day 1-5): 8.90 ± 2.59 %
- MPE % (reversal of tactile hyperalgesia) ([1]; pre_d 9, washout phase after 14.7 mg/kg i.p. BID day 1-5): 17.2 ± 3.43 %
- MPE % (reversal of tactile hyperalgesia) ([1]; pre_d 9, washout phase after 14.7 mg/kg i.p. BID day 1-5, listed as tapentadol): 17%
- MPE % (reversal of tactile hyperalgesia) ([1]; pre_d 12, washout phase (7 days of washout) after 14.7 mg/kg i.p. BID day 1-5): 8.60 ± 3.94 %
- MPE % (reversal of tactile hyperalgesia) ([1]; pre_d 12, washout phase (7 days of washout) after 14.7 mg/kg i.p. BID day 1-5, listed as tapentadol): 9%
- levels of mRNA encoding ATF3, IL-6 and BDNF, tapentadol vs saline [2]: not significantly different
